According to US20200000834A1, “POLYPHENOL GLYCOSIDE-CONTAINING COMPOSITION” (SUNSTAR INC., priority 2018, published 2020):

Assays:
AMPK = conditions: known as; cited from earlier work
[1] = system: ACC (acetyl-CoA carboxylase); assay: ACC phosphorylation (pACC/tACC) by western blotting in C2C12 myotubes; format: cell-based, mouse; conditions: single use or combination in a specific mass ratio
Experimental: The resultant was used in the following experiment. Since trifolin and astragalin have the same molecular weights, their concentration ratios are the same as the mass ratios. A medium without any addition was used as a negative control, and a medium containing AICAR (final concentration: 2 mM) was used as a positive control. AICAR is a substance that is metabolized to an analog of AMP when taken in a cell.
A mouse skeletal myotube cell line (C2C12) was inoculated in a 6-well cell culture plate. The cell line was cultured in a DMEM medium containing 10% fetal bovine serum and a 1% antibacterial agent at 37° C. in the presence of 5% carbon dioxide for 3 days. […] The protein concentration of each supernatant was measured. […]
After SDS-PAGE, the protein was transferred to a PVDF membrane, and blocking was performed. […] After sufficient washing, chemiluminescence (band) on the membrane was detected using a CCD camera imager (produced by GE Healthcare) (FIG. 1). The band intensity was quantified using image J (NIH). The degree of the activity (i.e., “phosphorylated AMPK/total AMPK (pAMPK/tAMPK)” or “phosphorylated ACC/total ACC (pACC/tACC)”) was expressed as a relative value with the value of the negative control being defined as 1 (FIG. 2a and FIG. 2b).

Structure (SMILES) | AMPK activation in skeletal muscle (AMPK) | ACC phosphorylation promotion (ACC inactivation promotion) effects [1]
NC(=O)c1ncn([C@@H]2O[C@H](CO)[C@@H](O)[C@H]2O)c1N [AICAR] | significantly activating AMPK | 
O=c1c(O[C@@H]2O[C@H](CO)[C@H](O)[C@H](O)[C@H]2O)c(-c2ccc(O)cc2)oc2cc(O)cc(O)c12 [trifolin, kaempferol-3-O-galactoside] |  | almost no effects
